Source: US20260308102A1, “18F-FLUORINATED FATTY ACIDS AND USES THEREOF” (Ratio Therapeutics, Inc., priority 2022, published 2026)
Entries after “also recorded” stand apart in the source; their conditions may differ. Values belong to the compound of their own block, whether it stands above or below them.

Key:
[1] = Static μPET/CT imaging at 45 min p.i. of short chain 18F-fatty acids and esters (Example 1)
Experimental: FIG. 1 is a series of Static Sagital and Coronal Maximum Intensity Projections (MIPs) μPET/CT images obtained at 45 minutes p.i. for the compounds studied (excluding palmitate) in normally fed animals. Imaging with ethyl-protected intermediates are also shown (e-).
Wild type immunocompetent animals were used, both for imaging and biodistribution experiments.
The activity was administered to the awake animals (n=2) via tail-vein injection (9.25-18.5 MBq, or 250-500 μCi) and placed back into their cages. At 35 minutes post injection (p.i.), animals were place in an acrylic enclosure under 4% isoflurane anesthesia in O2 for initial knockdown, then reduced to 2.5%. Once asleep, animals were placed in the imaging holder and a 5-minute CT was followed by a 15-minute static PET (approx. 45-60 min p.i., or 10-15 min after completion of anesthesia). As before, animals were allowed to recover from the anesthesia before returning to the holding facility for decay. When warranted, animals were studied with regular feeding and fasting for 6-12 hours to evaluate any difference in biodistribution.

[2] = Dynamic PET imaging (60 min) of butyrate analogues (Example 1); type: in vivo, wild type mice; settings: for in vivo behavior / biodistribution, comparison of isomers: 4-[^18F]FB vs 2-[^18F]FB
Experimental: FIG. 10 is a series of dynamic μPET/CT images depicting the biodistribution of 2-[^18F]FB and 4-[^18F]FB in wild type mice. Stable biodistribution was achieved after 45 minutes p.i.
Animals were anesthetized under 3% isoflurane in 02. […] Animals were allowed to recover from anesthesia and were carefully observed before moving them back to the holding facility for decay. Data was reconstructed as five 12-minute frames and as twelve 5-minute frames for analysis.

[3] = Static μPET/CT imaging at 45 min p.i. of medium and long chain 18F-fatty acids (Example 2); settings: for brain uptake: includes earlier short chain data; for defluorination (bone uptake) / metabolic rate: static PET
Experimental: All animal experiments were approved by the Albert Einstein College of Medicine IACUC. Wild type immunocompetent animals were used for imaging. Feeding and water conditions were maintained throughout the study. Animals were never fasted.
The agent was administered to awake animals via tail-vein injection (9.25-18.5 MBq, or 250-500 μCi, n=2) and placed back into their cages. At 40 minutes post injection (henceforth p.i.), animals were place in an acrylic enclosure under 4% isoflurane anesthesia in O2 for initial knockdown, then reduced to 2.5%. Once asleep, animals were placed in the imaging holder and a 5-minute CT followed by a 15-minute static PET were performed (Approx. 45-60 min p.i.). As before, animals were allowed to recover from the anesthesia before returning to the holding facility for radiotracer decay. Images were analyzed by drawing regions of interest (ROIs) and quantifying the amount of tracer present as percent of injected activity per cubic centimeter (% IA/cc). Blood, urinary bladder and gut activity were determined by computer drawing of 2 mm diameter ROI spheres in the left cardiac ventricle, the urinary bladder and the areas of specific gut uptake, respectively. Brain, liver and kidney ROIs were drawn CT-aided and the radioactive contents were later quantified.

[4] = test system: monocarboxylate transporter (MCT); assay: PET imaging of 2-[^18F]FP with lactate displacement and MCT inhibition by AZD-3965 co-injection; type: in vivo, wild type mice
Source text: FIG. 2 is a graph depicting PET-derived quantification of brain and pancreatic (“gut”) uptake of 2-[^18F]FP and 2-(L)-[^18F]FP under different conditions (n=2).
FIG. 12 is a collection of dynamic μPET/CT images that compare different imaging conditions including blocking with the MCT1 blocker AZD3965.
Further experiments to test the possibility of using 2-[^18F]FP and 2-(L)-[^18F]FP as a lactate surrogate, including co-injection with (L)Lactate, (D)Lactate, and AZD-3965 to produce displacement and monocarboxylate transporter (MCT) inhibition (respectively) were conducted and results can be observed in FIG. 2. The corresponding μPET/CT images can be found in the FIG. 12.
The unique characteristics of 2-[^18F]FP open many possibilities to study cancers and brain/CNS function and metabolism. As with 2-[^18F]FB the enantiomers have not been separated for either production or quality control. However, parametric production of 2-(L)-[^18F]FP was possible since the ethyl(2R)-2-{[(4-methylphenyl) sulfonyl]oxy}propanoate is commercially available. This compound's ability to resemble (L)-lactate has been contested in vitro, with confounding in vivo results. For comparison we co-injected 2-[^18F]FP separately with 0.5 and 5 mg/kg (L) and (D) sodium lactate (an increase of 5 and 50% respectively in homeostatic lactate circulation), and 5 mg/Kg of AZD-3965, an monocarboxylate transporter (MCT) 1 and 2 inhibitor (Ki(MCT1)=3 nM, Ki(MCT2)=20 nM) in the same animal model.

MCT1 [5] = settings: in vitro, Van Hée et al.; cited from earlier work
[6] = Stability in HCl and saline solution; type: physicochemical; settings: for stability in HCl: HCl lower than 3 M
MCT2 = settings: role: inhibitor; cited from earlier work
MCT1 [7] = settings: role: inhibitor; cited from earlier work
[8] = cancer patients; cited from earlier work
[9] = co-injection with AZD-3965, 5 mg/Kg

Structure (SMILES): CCC([18F])C(=O)O (racemic) [2-[^18F]FB, 2-[^18F]Fluorobutyrate]
brain uptake, fasted vs fed ([1]; fasted vs fed, 45 min p.i.): small reduction in brain uptake (not significant) | circulatory activity, fasted vs fed ([1]; fasted vs fed, 45 min p.i.): slight increase in circulatory activity | gut uptake, fasted vs fed ([1]; fasted vs fed, 45 min p.i.): modest reduction; also recorded: reduction in the aforementioned specifically located gut uptake | metabolic activity / defluorination, fasted vs fed ([1]; fasted vs fed, 45 min p.i.): reduced defluorination; also recorded: slight decrease in metabolic rate | brain/CNS uptake ([1]; static PET, 45 min p.i., fed): marked brain uptake | brain uptake with or without isoflurane anesthesia and fasting ([1]; with or without isoflurane, with or without fasting): remained unchanged with or without isoflurane anesthesia, and with or without fasting | brain/central nervous system (CNS) uptake [2]: the highest of the studied series | gut uptake [2]: seemingly specific gut uptake | in vivo behavior / biodistribution, comparison of isomers [2]: behaved very differently in vivo | brain uptake ([3]; 45 min p.i.): High brain uptake | brain uptake ([3]; 45 min p.i., listed as 2-[^18F]Fluorobutyrate): peaking

specific abdominal uptake ([3]; 45 min p.i.): not found | defluorination (bone uptake) ([3]; 45 min p.i.): Almost no defluorination
Structure (SMILES): CCCCC([18F])C(=O)O (racemic) [2-[^18F]FC, 2-Fluorocaproate]
brain uptake ([3]; 45 min p.i.): High brain uptake; also recorded: the longest substrate absorbed by the brain

Structure (SMILES): CCCCCCC([18F])C(=O)O (racemic) [2-[^18F]FCy, 2-Fluorocaprylate]
specific abdominal uptake ([3]; 45 min p.i.): not found | brain uptake ([3]; 45 min p.i.): significantly reduced | defluorination (bone uptake) ([3]; 45 min p.i.): Almost no defluorination

specific abdominal uptake ([3]; 45 min p.i.): not found | defluorination (bone uptake) ([3]; 45 min p.i.): small bone uptake
Structure (SMILES): CCCCCC([18F])C(=O)O (racemic) [2-[^18F]FE, 2-Fluoroenanthate]
brain uptake ([3]; 45 min p.i.): significantly reduced; also recorded: all brain uptake is stopped; also recorded: stops abruptly

Structure (SMILES): CC([18F])C(=O)O (racemic) [2-[^18F]FP, 2-[^18F]Fluoropropionate]
apparent stability in vivo ([1]; no metabolite analysis performed): seems to be stable in vivo in the studied period; also recorded: high apparent probe stability in vivo | blood circulation time ([1]; static PET, 45 min p.i.): decreased circulation times | defluorination in vivo ([1]; static PET, 45 min p.i.): only minor defluorination was observed; also recorded: no defluorination was observed | brain/CNS uptake ([1]; static PET, 45 min p.i., fed): maintained CNS uptake; also recorded: specific uptake in brain and the central nervous system; also recorded: marked brain uptake | abdominal uptake under different imaging conditions ([4]; different imaging conditions (fasting, lactate)): remained stable and not affected by the different imaging conditions | average brain uptake, fasting or co-injection with (L)-lactate ([4]; fasting, co-injection with 5 mg/kg (L)-lactate, differences not significant): slight increase in average brain uptake | brain uptake ([3]; 45 min p.i.): High brain uptake | MCT1-dependent accumulation (MCT1 [5]): does not accumulate in a MCT1-dependent manner

blood content ([3]; 45 min p.i.): reduced | liver uptake ([3]; 45 min p.i.): predominant liver uptake | specific abdominal uptake ([3]; 45 min p.i.): not found | brain uptake ([3]; 45 min p.i.): significantly reduced | defluorination (bone uptake) ([3]; 45 min p.i.): slightly higher defluorination rate
Structure (SMILES): CCCCCCCCCCCCCCC([18F])C(=O)O (racemic) [2-[^18F]FPalm, 2-[^18F]Fluorohexadecanoic acid]

Structure (SMILES): CCCC([18F])C(=O)O (racemic) [2-[^18F]FV, 2-Fluorovalerate]
specific abdominal uptake ([3]; 45 min p.i.): evident | brain uptake ([3]; 45 min p.i.): High brain uptake | defluorination (bone uptake) ([3]; 45 min p.i.): small bone uptake

blood circulation time ([1]; static PET, 45 min p.i.): long circulation time | defluorination in vivo ([1]; static PET, 45 min p.i.): without defluorination | general biodistribution ([1]; static PET, 45 min p.i.): non-specificity
Structure (SMILES): CC(C)([18F])C(=O)O [2-[^18F]FIB, 2-[^18F]Fluoroisobutyrate]
brain/CNS uptake ([1]; static PET, 45 min p.i., fed): marked brain uptake in contrast to their branched congener

stability in HCl [6]: not stable | stability in saline solution [6]: decomposed immediately
Structure (SMILES): CC([18F])CC(=O)O (stereo not drawn) [3-[^18F]FB, 3-[^18F]Fluorobutyrate]

stability in HCl [6]: not stable | stability in saline solution [6]: decomposed immediately
Structure (SMILES): O=C(O)CC[18F] [3-[^18F]FP, 3-[^18F]Fluoropropionate]

Structure (SMILES): O=C(O)CCC[18F] [4-[^18F]FB, 4-[^18F]Fluorobutyrate]
circulatory activity, fasted vs fed ([1]; fasted vs fed, 45 min p.i.): slight increase in circulatory activity | metabolic activity / defluorination, fasted vs fed ([1]; fasted vs fed, 45 min p.i.): reduced defluorination; also recorded: reduction in metabolic activity was especially noticeable; also recorded: slight decrease in metabolic rate | in vivo behavior / biodistribution, comparison of isomers [2]: behaved very differently in vivo

Structure (SMILES): O=C(O)CCCC[18F] [5-[^18F]FV, 5-Fluorovalerate]
metabolic rate ([3]; 45 min p.i.): much faster metabolic rate than that of 6-[^18F]FC and 8-[^18F]FCy

Structure (SMILES): O=C(O)CCCCCC[18F] [7-[^18F]FE, 7-Fluoroenanthate]
metabolic rate ([3]; 45 min p.i.): much faster metabolic rate than that of 6-[^18F]FC and 8-[^18F]FCy

Structure (SMILES): O=C(O)CCCCCCCCCCCCCCC[18F] [16-[^18F]FPalm, 16-[^18F]Fluorohexadecanoic acid]
bright spot in liver / autopsy finding ([3]; one animal): a bright spot was found in one the animal's liver, but later autopsy did not revealed any interesting finding | defluorination (bone uptake) ([3]; 45 min p.i.): faster for the 16-substituted compound, although much slower in contrast to its MCFA n-substituted congeners

blocking of gut uptake by AZD-3965 ([4]; co-injection with AZD-3965): selectively blocked
Structure (SMILES): Cc1[nH]nc(C(F)(F)F)c1Cc1sc2c(c1C(=O)N1C[C@](C)(O)CO1)c(=O)n(C)c(=O)n2C(C)C [AZD-3965]
Ki (MCT2): 20 nM | Ki (MCT1 [7]): 3 nM | blocking of uptake / biodistribution by AZD-3965 [4, 9]: blocked the overall biodistribution of 2-[^18F]FP; also recorded: significant blocking of fatty acid uptake | excretion with AZD-3965 co-injection [4, 9]: almost complete excretion; also recorded: increased excretion

Structure (SMILES): CC(=O)O [[^11C]Acetate]
uptake in comparison with [^18F]FDG [8]: mutually exclusive

Structure (SMILES): O=C(O)C[18F] [[^18F]FA, [^18F]Fluoroacetate]
blood circulation time ([1]; static PET, 45 min p.i.): decreased circulation times | brain/CNS uptake ([1]; static PET, 45 min p.i., fed): maintained CNS uptake | specific gut uptake ([1]; static PET, 45 min p.i., fed): highest uptake | brain uptake ([3]; 45 min p.i.): High brain uptake

blood circulation time ([1]; static PET, 45 min p.i.): slightly longer blood circulation | general biodistribution ([1]; static PET, 45 min p.i.): almost identical biodistribution
Structure (SMILES): CCOC(=O)C([18F])CC (stereo not drawn) [e-2-[^18F]FB, Ethyl 2-[^18F]Fluorobutyrate]

stability in HCl [6]: not stable | stability in saline solution [6]: decomposed immediately
Structure (SMILES): CCOC(=O)CC(C)[18F] (stereo not drawn) [e-3-[^18F]FB, Ethyl 3-[^18F]Fluorobutyrate]

Structure (SMILES): CCOC(=O)CC[18F] [e-3-[^18F]FP, Ethyl 3-[^18F]Fluoropropionate]
stability in HCl [6]: not stable | stability in saline solution [6]: decomposed immediately

Structure (SMILES): CCOC(=O)CCC[18F] [e-4-[^18F]FB, Ethyl 4-[^18F]Fluorobutyrate]
blood circulation time ([1]; static PET, 45 min p.i.): slightly longer blood circulation | general biodistribution ([1]; static PET, 45 min p.i.): almost identical biodistribution
